Assay results as given in patent US10098974B2, “Catalytic radiofluorination” (priority 2004, dated 2018).
Read-outs that look alike come from different tables or passages of the source.

What was measured:
[1] = Biodistribution of FTTP in rats after intravenous administration
[2] = rabbit
Procedure: (§1) Rats (250-300 grams) or rabbits (3-4 Kg) were anesthetized and placed ventrally to the imaging position and 0.4-1 mCi of the FTPP was injected into the vain. Three-dimensional dynamic data were acquired in list mode for one hour starting from the injection of the radiolabeled ligand.
(§2) PET imaging was conducted with a microPET, P4 system (Concorde Microsystems Inc, Knoxville, Tenn.). The length of the field of view is 8 cm and the diameter is 22 cm allowing entire upper body imaging of the rat or rabbit during a single acquisition. The imaging parameters of this system are in-plane and axial resolution of 1.2 mm full width of photopeak measured at half maximal count.
The rabbit was anesthetized, placed in the microPET camera (body marks in the camera positioning were made) and sequential images were obtained for ten minutes following the administration of 3 mCi of N-13-ammonia (FIG. 10). One hour later, FTPP was injected followed by 60 minute sequential imaging of the rabbit (FIG. 11). Image corrections for the remaining N-13-ammonia activity were made with an appropriate program. One day later, the same rabbit underwent an LAD occlusion protocol, positioned in the same camera field of view and the above dual agent imaging sequence was repeated.

[3] = rat, microPET
Procedure: as §1, §2

[4] = tested on: C6 glioma cell line; settings: from maximum accumulation at 30 minutes
[5] = tested on: C-6BAG glioma; settings: period of 240 minutes
[6] = tested on: CV-1 normal cell line
[7] = tested on: MCF-7; settings: MCF-7, period of 240 minutes
[8] = 5 min post administration (Table 1)
[9] = 30 min post administration (Table 1)
[10] = 60 min post administration (Table 1)

Compound: O=[N+]([O-])[O-].[18F]c1ccc([P+](c2ccccc2)(c2ccccc2)c2ccccc2)cc1 [FTTP, [F-18]-(4-fluorophenyl)triphenylphosphonium nitrate]
- Heart/Blood ratio [1, 8]: 11 % ID/g
- Heart/Liver ratio [1, 8]: 5 % ID/g
- Heart/Lung ratio [1, 8]: 2 % ID/g
- Heart/Blood ratio [1, 9]: 75 % ID/g
- Heart/Liver ratio [1, 9]: 8 % ID/g
- Heart/Lung ratio [1, 9]: 5 % ID/g
- Heart/Blood ratio [1, 10]: 70 % ID/g
- Heart/Liver ratio [1, 10]: 8 % ID/g
- Heart/Lung ratio [1, 10]: 4 % ID/g
- Bone accumulation (indication of defluorination) ([1]; iv, 5 min): 0.31 ID/g
- Heart-to-lung ratio ([1]; iv, 5 min): 2.4
- Lung activity ([1]; iv, 5 min): 0.69 ID/g
- accumulation in heart relative to blood ([1]; iv, 5 min): 11 fold
- accumulation in heart relative to liver ([1]; iv, 5 min): 5 fold
- accumulation in the heart ([1]; iv, 5 min): 1.64 ID/g
- liver uptake ([1]; iv, 5 min): 0.18 ID/g
- Heart-to-lung ratio ([1]; iv, 30 min): 5.0
- Lung activity ([1]; iv, 30 min): 0.30 ID/g
- liver uptake ([1]; iv, 30 min): 0.17 ID/g
- uptake of radioactivity in the heart ([1]; iv, 30 min): 1.5 ID/g
- Bone accumulation (indication of defluorination) ([1]; iv, 60 min): 0.39 ID/g
- Heart-to-lung ratio ([1]; iv, 60 min): 3.2
- Lung activity ([1]; iv, 60 min): 0.38 ID/g
- liver uptake ([1]; iv, 60 min): 0.17 ID/g
- myocardial retention ([2]; late images at 60 min): high myocardial retention
- time after injection at which heart activity reaches a plateau ([2]; microPET): 1 min
- time after injection at which heart activity reaches a plateau [3]: 1 min

Compound: [I-125]-p-iodophenyltriphenylphosponium nitrate [TPPI]
- cell retention [4]: partial washout
- cell retention [5]: High retention
- cell uptake [6]: no significant uptake
- cell retention [7]: High retention
